From paper PMC7125202, “Targeting of radioactive platinum-bisphosphonate anticancer drugs to bone of high metabolic activity” (Scientific Reports, 2020)

Columns and labels:
[1] = Pt-BP pH stability assessed by 31P NMR; format: physicochemical; conditions: 120 mM NaCl, D2O, 37 °C
Method: ^31P NMR spectra were recorded on a Bruker Avance III […] instrument. Standard pulse sequences were used for ^31P{1H} (121.5 MHz) spectra. Chemical shifts (^31P) were referenced to external H3PO4 (85% w/w; 0 ppm). A Crison Micro-pH meter Model 2002, equipped with Crison microcombination electrodes (5- and 3-mm diameter) and calibrated with Crison standard buffer solution at pH 4.01, 7.02, and 10.00, was used for pH measurements. The pH readings from the pH meter for D2O solutions are indicated as pD values and are uncorrected for the effect of deuterium on glass electrodes. The stability of Pt-BP in buffered solutions at 37 °C was assessed by ^31P NMR spectroscopy as previously reported. Pt-BP (∼4 mg) was dissolved in 0.8 mL of D2O containing (i) 50 mM 4-(2-hydroxyethyl)-1-piperazineethanesulfonic acid) (HEPES) buffer (pD = 7.4) and 120 mM NaCl or (ii) 50 mM 2-(N-morpholino)ethanesulfonic acid (MES) buffer (pD = 5.25) and 120 mM NaCl. The resulting two solutions were transferred into NMR tubes and maintained at 37 °C. ^31P NMR spectra were recorded over a period of 15 days. The relative concentrations of the individual species in solution were deduced from integration of the ^31P signals.
To investigate the stability of Pt-BP in near-physiological conditions, we utilized a medium consisting of D2O containing HEPES buffer (50 mM, pH = 7.4) and NaCl (120 mM) at 37 °C, in which we analyzed Pt-BP stability by ^31P-NMR spectroscopy. […] Two other asymmetrical species are visible in the ^31P-NMR spectrum recorded after 3 h as evidenced by the two pairs of doublets falling at 28.15 and 22.98 ppm and 26.25 and 21.51 ppm (indicated by the black squares and diamonds in Supplement Fig. 2A). […]
To simulate the acidic environment in tumor tissue^3,4, we explored the stability of Pt-BP complexes at pD = 5.25 at 37 °C by ^31P-NMR spectroscopy (Supplement Fig. 2B). […] However, the formation of M was slower at acidic pD, while its hydrolysis, with concomitant formation of free bisphosphonate (BP), was faster than at pD 7.4 since Pt-BP and BP were detected after 48 h (Supplement Fig. 2B).

genomic DNA = assay: Pt-DNA adducts quantification using High Resolution ICP-MS; format: in vivo, C57Bl/6N mice; conditions: 24 h after i.v. injection
Excerpt: The remaining half of the tissues from all mice were dissected and weighed for DNA extraction. DNA was isolated using DNeasy Blood & Tissue Kit (Qiagen, USA) for soft tissue and ChargeSwitch® gDNA Plant Kit (Thermofisher, USA) for bone samples. The DNA was digested with DNase I Solution (Thermofisher, USA) and filtered using 0.2 µm acrodisc GHP before analysis for Pt content using high resolution-ICP-MS (Element2, Thermo Finnigan). The detection limit for determining the platinum concentration was 2 ng/l. The standard solutions were prepared from 1000 mg·1^−1 platinum ICP standard Certipur (1.70341.0100, Merck) ranging from 5 ppt to 10 ppb. The selected isotopes for platinum were ^194Pt and ^195Pt. Furthermore, thallium (Tl) was added as an internal standard and determined at a molecular mass of 205 Da, which was prepared using a 1000 mg·1^−1 thallium standard (CGTL-1, Inorganic Ventures) to correct for matrix effects and long-term fluctuations of the analytical signal. The Pt-DNA adduct concentration is represented as percentage of Pt involved in adduct formation to the total amount of Pt accumulated in the specific tissue.

Structure (SMILES): NCCN.NCCN.O.O.O.O=S(=O)([O-])O.[NH3+]CC1(O)P2(=O)[O][Pt][O]P1(=O)[O][Pt][O]2 (stereo not drawn) [Pt-BP, dinuclear bis<ethylenediamineplatinum(II) > -2-amino-1-hydroxyethane-1,1-diyl-bisphosphonate complex]
- time of release of both Pt(en) moieties (free BP detected) ([1]; pD 5.25, 50 mM MES): 48 h
- time after which no traces of the starting Pt-BP complex were observed ([1]; pD 7.4, 50 mM HEPES): ≤ 24 h
- time of release of the second Pt(en) moiety (appearance of free BP) ([1]; pD 7.4, 50 mM HEPES): 96 h
- Pt-DNA adduct formation relative to total Pt uptake, all tissues except kidney and spleen (genomic DNA): < 0.5%
- Pt-DNA adduct formation relative to total Pt uptake, kidney (genomic DNA): 2.8%
- Pt-DNA adduct formation relative to total Pt uptake, spleen (genomic DNA): 1.4%
